The record followed here is patent US8404708B2, “Dual NK1/NK3 receptor antagonists” (Hoffmann-La Roche Inc., priority 2004, dated 2013).

Assay [1] addresses T1, Recombinant human NK3 (hNK3) receptor (Homo sapiens, UniProt P29371).
T1 construct: expressed in transfected cells
T1 sequence (P29371 1-465): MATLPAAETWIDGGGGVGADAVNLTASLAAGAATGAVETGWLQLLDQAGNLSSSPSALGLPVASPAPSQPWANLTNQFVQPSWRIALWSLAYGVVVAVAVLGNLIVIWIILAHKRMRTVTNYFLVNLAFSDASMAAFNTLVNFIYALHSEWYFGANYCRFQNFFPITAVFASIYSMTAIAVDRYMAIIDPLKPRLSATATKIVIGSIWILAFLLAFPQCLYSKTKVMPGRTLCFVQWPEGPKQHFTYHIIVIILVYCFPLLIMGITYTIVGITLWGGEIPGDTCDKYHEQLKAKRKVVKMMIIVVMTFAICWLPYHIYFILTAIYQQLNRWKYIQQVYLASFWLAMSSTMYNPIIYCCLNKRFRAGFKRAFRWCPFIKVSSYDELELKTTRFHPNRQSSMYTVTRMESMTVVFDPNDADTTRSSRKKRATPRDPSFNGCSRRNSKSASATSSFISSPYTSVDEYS
Description: NK3 receptor binding, [3H]SR142801 displacement, membrane preparations. Particulars: second value of the cell pKi NK1/NK3; hNK3 receptor, [3H]SR142801. How it is done:
Non specific binding was determined using 10 μM SB222200. Assay buffer consisted of Tris-HCl (50 mM, pH 7.4), BSA (0.1%), MnCl2 (4 mM) and phosphoramidon (1 μM). Membrane preparations of hNK3 receptors (approximately 2.5 μg/well in a 96 well plate) were used to initiate the incubation for 90 min at room temperature. This assay was terminated by rapid filtration under vacuum through GF/C filters, presoaked for 90 min with PEI (0.3%), with 3×0.5 ml washes of ice-cold Tris buffer (50 mM, pH 7.4) containing 0.1% BSA. The radioactivity retained on the filters was measured by scintillation counting. All assays were performed in duplicate in at least two separate experiments.

The target in another assay is human NK1 receptor (Homo sapiens, UniProt P25103). In words: NK1 receptor binding, [3H]substance P displacement, CHO cell membranes. Particulars: first value of the cell pKi NK1/NK3; human NK1 receptor, [3H]substance P.
Chain of human NK1 receptor (P25103 whole entry): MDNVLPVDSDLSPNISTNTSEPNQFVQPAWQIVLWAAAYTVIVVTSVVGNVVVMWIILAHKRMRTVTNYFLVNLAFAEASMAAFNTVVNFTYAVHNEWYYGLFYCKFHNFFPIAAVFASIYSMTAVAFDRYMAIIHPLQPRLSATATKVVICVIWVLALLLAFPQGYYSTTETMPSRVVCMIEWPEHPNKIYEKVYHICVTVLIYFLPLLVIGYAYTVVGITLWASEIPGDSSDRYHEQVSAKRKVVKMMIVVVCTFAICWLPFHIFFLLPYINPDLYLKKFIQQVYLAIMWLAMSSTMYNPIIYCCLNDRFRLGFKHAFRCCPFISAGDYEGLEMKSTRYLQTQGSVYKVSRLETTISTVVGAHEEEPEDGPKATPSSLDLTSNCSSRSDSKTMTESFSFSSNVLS

In general, Ki refers to the equilibrium dissociation constant of an inhibitor or competing ligand from its target. Consider `Cc1ccccc1-c1cc(N2CC[C@@H](O)[C@H](O)C2)ncc1N(C)C(=O)C(C)(C)c1cc(C(F)(F)F)cc(C(F)(F)F)c1` (racemic) [Example 186, (3RS,4RS)-2-(3,5-Bis-trifluoromethyl-phenyl)-N-(3,4-dihydroxy-4′-o-tolyl-3,4,5,6-tetrahydro-2H-[1,2′]bipyridinyl-5′-yl)-N-methyl-isobutyramide], for which the results for the Ki (in assay [1]; on human NK1 receptor) were 12.3 nM and 1.41 nM, respectively.
Take `CN(C(=O)C(C)(C)c1cc(C(F)(F)F)cc(C(F)(F)F)c1)c1cnc(N2CC[C@H](O)[C@H](O)C2)cc1-c1ccccc1Cl` (racemic) [Example 187, (3RS,4SR)-2-(3,5-Bis-trifluoromethyl-phenyl)-N-[4′-(2-chloro-phenyl)-3,4-dihydroxy-3,4,5,6-tetrahydro-2H-[1,2′]bipyridinyl-5′-yl]-N-methyl-isobutyramide]: the results for the Ki (in assay [1]; on human NK1 receptor) were 25.7 nM and 1.66 nM, respectively.
The like results for `CN(C(=O)C(C)(C)c1cc(C(F)(F)F)cc(C(F)(F)F)c1)c1cnc(N2CC[C@@H](O)[C@H](O)C2)cc1-c1ccccc1Cl` (racemic) [Example 188, (3RS,4RS)-2-(3,5-Bis-trifluoromethyl-phenyl)-N-[4′-(2-chloro-phenyl)-3,4-dihydroxy-3,4,5,6-tetrahydro-2H-[1,2′]bipyridinyl-5′-yl]-N-methyl-isobutyramide] were, in that order, 15.5 nM and 1.32 nM.
The like results for `CN(C(=O)C(C)(C)c1cc(C(F)(F)F)cc(C(F)(F)F)c1)c1cnc(N2CC[C@H](O)C[C@@H]2CO)cc1-c1ccccc1Cl` (racemic) [Example 189, (2RS,4SR)-2-(3,5-Bis-trifluoromethyl-phenyl)-N-[4′-(2-chloro-phenyl)-4-hydroxy-2-hydroxymethyl-3,4,5,6-tetrahydro-2H-[1,2′]bipyridinyl-5′-yl]-N-methyl-isobutyramide] were, in that order, 3.98 nM and 1.51 nM.
The like results for `Cc1ccccc1-c1cc(N2CC[C@H](O)C[C@@H]2CO)ncc1N(C)C(=O)C(C)(C)c1cc(C(F)(F)F)cc(C(F)(F)F)c1` (racemic) [Example 190, (2RS,4SR)-2-(3,5-Bis-trifluoromethyl-phenyl)-N-(4-hydroxy-2-hydroxymethyl-4′-o-tolyl-3,4,5,6-tetrahydro-2H-[1,2′]bipyridinyl-5′-yl)-N-methyl-isobutyramide] were, in that order, 4.07 nM and 1.58 nM.
As for `Cc1ccccc1-c1cc(N2CC[C@H](O)[C@@H](CO)C2)ncc1N(C)C(=O)C(C)(C)c1cc(C(F)(F)F)cc(C(F)(F)F)c1` (racemic) [Example 191, (3RS,4SR)-2-(3,5-Bis-trifluoromethyl-phenyl)-N-(4-hydroxy-3-hydroxymethyl-4′-o-tolyl-3,4,5,6-tetrahydro-2H-[1,2′]bipyridinyl-5′-yl)-N-methyl-isobutyramide], the results for the inhibition constant (Ki) (in assay [1]; on human NK1 receptor) were 24.5 nM and 2.04 nM, respectively.
As to `Cc1ccccc1-c1cc(N2CC[C@@H](O)[C@@H](CO)C2)ncc1N(C)C(=O)C(C)(C)c1cc(C(F)(F)F)cc(C(F)(F)F)c1` (racemic) [Example 192, (3RS,4RS)-2-(3,5-Bis-trifluoromethyl-phenyl)-N-(4-hydroxy-3-hydroxymethyl-4′-o-tolyl-3,4,5,6-tetrahydro-2H-[1,2′]bipyridinyl-5′-yl)-N-methyl-isobutyramide], the Ki is 34.7 nM in assay [1] and 3.02 nM on human NK1 receptor.
As for `CN(C(=O)C(C)(C)c1cc(C(F)(F)F)cc(C(F)(F)F)c1)c1cnc(N2CC[C@H](O)[C@@H](CO)C2)cc1-c1ccccc1Cl` (racemic) [Example 193, (3RS,4SR)-2-(3,5-Bis-trifluoromethyl-phenyl)-N-[4′-(2-chloro-phenyl)-4-hydroxy-3-hydroxymethyl-3,4,5,6-tetrahydro-2H-[1,2′]bipyridinyl-5′-yl]-N-methyl-isobutyramide], the values for the Ki (in assay [1]; at human NK1 receptor) were 12 nM and 1.45 nM, respectively.
For `CN(C(=O)C(C)(C)c1cc(C(F)(F)F)cc(C(F)(F)F)c1)c1cnc(N2CC[C@@H](O)[C@@H](CO)C2)cc1-c1ccccc1Cl` (racemic) [Example 194, (3RS,4RS)-2-(3,5-Bis-trifluoromethyl-phenyl)-N-[4′-(2-chloro-phenyl)-4-hydroxy-3-hydroxymethyl-3,4,5,6-tetrahydro-2H-[1,2′]bipyridinyl-5′-yl]-N-methyl-isobutyramide], the figures for the Ki (in assay [1]; at human NK1 receptor) were 17.4 nM and 1.66 nM, respectively.
The like results for `CN(C(=O)C(C)(C)c1cc(C(F)(F)F)cc(C(F)(F)F)c1)c1cnc(N2CCC[C@@H](O)[C@H]2CO)cc1-c1ccccc1Cl` (racemic) [Example 195, (2RS,3RS)-2-(3,5-Bis-trifluoromethyl-phenyl)-N-[4′-(2-chloro-phenyl)-3-hydroxy-2-hydroxymethyl-3,4,5,6-tetrahydro-2H-[1,2′]bipyridinyl-5′-yl]-N-methyl-isobutyramide] were, in that order, 28.8 nM and 1.82 nM.
`Cc1ccccc1-c1cc(N2C[C@@H](O)C[C@@H]2CO)ncc1N(C)C(=O)C(C)(C)c1cc(F)cc(C(F)(F)F)c1` (stereo in doubt) [Example 14, (2R,4S)-2-(3-Fluoro-5-trifluoromethyl-phenyl)-N-[6-(4-hydroxy-2-hydroxymethyl-pyrrolidin-1-yl)-4-o-tolyl-pyridin-3-yl]-N-methyl-isobutyramide]: the Ki in assay [1] is 3.02 nM; at human NK1 receptor it was 1.29 nM.
For the compound `CN(C(=O)C(C)(C)c1cc(Cl)cc(Cl)c1)c1cnc(NCCO)cc1-c1ccccc1Cl` [Example 1, N-[4-(2-Chloro-phenyl)-6-(2-hydroxy-ethylamino)-pyridin-3-yl]-2-(3,5-dichloro-phenyl)-N-methyl-isobutyramide], the Ki is 8.91 nM in assay [1] and 2.75 nM on human NK1 receptor.
For the compound `CN(C(=O)C(C)(C)c1cc(Cl)cc(Cl)c1)c1cnc(N2CCC[C@H]2CO)cc1-c1ccccc1Cl` [Example 2, (S)-N-[4-(2-Chloro-phenyl)-6-(2-hydroxymethyl-pyrrolidin-1-yl)-pyridin-3-yl]-2-(3,5-dichloro-phenyl)-N-methyl-isobutyramide], the inhibitory constant (Ki) in assay [1] was 0.891 nM; on human NK1 receptor, 3.39 nM.
`CN(C(=O)C(C)(C)c1cc(Cl)cc(Cl)c1)c1cnc(N2C[C@H](O)C[C@H]2CO)cc1-c1ccccc1Cl` [Example 3, (2S,4R)-N-[4-(2-Chloro-phenyl)-6-(4-hydroxy-2-hydroxymethyl-pyrrolidin-1-yl)-pyridin-3-yl]-2-(3,5-dichloro-phenyl)-N-methyl-isobutyramide]: the Ki in assay [1] is 0.871 nM; on human NK1 receptor, 1.41 nM.
Take `CN(C(=O)C(C)(C)c1cc(F)cc(C(F)(F)F)c1)c1cnc(N2CCC[C@H]2CO)cc1-c1ccccc1Cl` [Example 4, (S)-N-[4-(2-Chloro-phenyl)-6-(2-hydroxymethyl-pyrrolidin-1-yl)-pyridin-3-yl]-2-(3-fluoro-5-trifluoromethyl-phenyl)-N-methyl-isobutyramide]: the inhibitory constant (Ki) in assay [1] was 1.55 nM; at human NK1 receptor, 4.47 nM.
Turning to `CN(C(=O)C(C)(C)c1cc(F)cc(C(F)(F)F)c1)c1cnc(N2C[C@H](O)C[C@H]2CO)cc1-c1ccccc1Cl` [Example 5, (2S,4R)-N-[4-(2-Chloro-phenyl)-6-(4-hydroxy-2-hydroxymethyl-pyrrolidin-1-yl)-pyridin-3-yl]-2-(3-fluoro-5-trifluoromethyl-phenyl)-N-methyl-isobutyramide], the inhibitory constant (Ki) in assay [1] is 1.74 nM; at human NK1 receptor it was 1.55 nM.
